Several values for one entry are separate records, joined by “and”; a condition that tells them apart may be missing. Equal entries are not always repeated.
Biological target: T1, HsERK8 (Homo sapiens, UniProt Q8TD08)
T1 construct: plasmid pGEX2T expressing the full-length hERK8 coding region; made in house; host or cells: Escherichia coli Rosetta 2 (DE3)
T1 sequence (Q8TD08 1-544): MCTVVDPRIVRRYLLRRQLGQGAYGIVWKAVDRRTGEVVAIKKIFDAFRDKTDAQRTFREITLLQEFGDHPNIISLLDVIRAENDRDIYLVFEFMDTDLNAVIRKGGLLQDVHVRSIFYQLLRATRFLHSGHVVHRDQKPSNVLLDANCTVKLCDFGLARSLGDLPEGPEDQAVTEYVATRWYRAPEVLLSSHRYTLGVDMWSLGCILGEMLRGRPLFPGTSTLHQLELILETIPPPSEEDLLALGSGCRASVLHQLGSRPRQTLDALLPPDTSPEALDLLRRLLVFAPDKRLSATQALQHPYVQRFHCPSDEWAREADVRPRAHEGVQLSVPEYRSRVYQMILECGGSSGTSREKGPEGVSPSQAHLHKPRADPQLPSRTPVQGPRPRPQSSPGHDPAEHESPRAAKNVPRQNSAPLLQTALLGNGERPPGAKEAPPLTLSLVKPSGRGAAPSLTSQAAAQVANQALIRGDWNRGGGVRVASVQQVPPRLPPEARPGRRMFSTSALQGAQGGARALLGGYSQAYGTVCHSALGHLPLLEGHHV
Experiment: Luciferase-based kinase inhibition assay (ATP luminescence), GST-tagged HsERK8 with MBP substrate
Type: biochemical
Conditions: for raw luminescence, HsERK8: replicate wells; for Luminescence Raw (Kinase-Glo): HsERK8
Method: Escherichia coli strain Rosetta 2 (DE3) (Cat# 71397, MilliporeSigma, Burlington, MA) was transformed with the plasmid pGEX2T expressing the full-length hERK8 coding region or pGSTAg expressing the full-length TbERK8 coding region. One liter of Terrific Broth media containing 100 μg/ml Ampicillin and 30 μg/ml chloramphenicol in 2 L baffled flasks was inoculated with 25 mL from an overnight culture of Rosetta 2 strains harboring either the pGEX2T-hERK8 or pGSTAg-TbERK8 plasmid. Two baffled flasks were inoculated with each overnight strain and incubated and shaken at 175 RPM in a New Brunswick Innova 44R Incubator Shaker (Fischer Scientific, Pittsburgh, PA) at 37 °C until the cultures reached an O.D.600 of 0.94. Once the cultures in the flask reached the target O.D.600, the flasks were cooled to 4 °C in an ice water bath. The cooled cultures were induced by adding isopropyl β-D-1-thiogalactopyranoside (IPTG) to a final concentration of 0.1 mM and shaken at 16 °C for 16 hours at 175 RPM in a New Brunswick Innova 44R Incubator Shaker (Fischer Scientific, Pittsburgh, PA). On the next day, the cultures were pelleted by centrifugation at 9000 xg in a JLA 10.500 rotor (Beckman Coulter; Brea, CA), and the media was decanted. The pellet was flash-frozen in liquid nitrogen and then thawed on ice. The thawed pellet was resuspended in lysis buffer (25 mM Tris, 75 mM NaCl, 0.5% TritonX-100 and 0.5% Nonidet P-40, 1 mM phenylmethanesulfonyl fluoride, 1 mM benzamidine⋅HCl) and lysed using a microfluidizer M-110P from Microfluidics (Westwood, MA). The crude lysates were clarified by centrifugation at 140,000 xg in a 45Ti rotor (Beckman Coulter, Brea, CA) for 30 min at 4°C. The clarified lysate was loaded by gravity to a 3 mL glutathione agarose resin column (Cat# G-250–10, GOLDBIO, St. Louis, MO) formed in a 1.5 × 20 cm glass chromatography column (Cat# 7371522, Bio-Rad, Hercules, CA). The column was washed with 30 mL of PBS (pH 7.4) containing 1 mM DTT. Elution buffer (50 mM Tris buffer pH 8.0 containing 10 mM reduced glutathione and 1 mM DTT was added to the washed column), and 1 mL fractions were collected by gravity and examined by SDS-PAGE stained by Coomassie dye. Peak fractions pooled from the elution were dialyzed (4x 1:500 dilutions) in kinase buffer (30 mM Tris, pH 7.4, 10 mM MgCl2, 1 mM DTT, 5% glycerol).
We performed kinase assays in buffer K (30 mM Tris pH 7.4, 10 mM MgCl2, 1 mM DTT, 5% glycerol, 50 μM ATP, and 0.1 mg/mL BSA) at 30°C for 30 min in 30 μL reactions. GST-tagged HsERK8 and TbERK8 were tested using myelin basic protein (MBP) (Cat# 13–110, Millipore, Darmstadt, Germany) as the substrate at increasing concentrations to determine the optimal activity for the assay. ATP consumption was determined by adding equal volumes of the kinase assay reagent (Promega, Cat# V5601, Madison, WI) following the manufacturer’s protocol. Luminescence was measured using the microplate reader (SpectraMax L, Molecular Devices, Sunnyvale, CA).
These compounds were screened for kinase inhibition utilizing a luciferase-based assay. Briefly, the kinases were tested using MBP as the substrate at a 14-fold molar excess in 384-well flat-bottom white plates (BRANDTECH Scientific, Cat# 781681, Essex, CT). These compounds were tested at concentrations ranging from […] to 150 nM. The kinases plus MBP substrate reactions were incubated with each inhibitor for 30 minutes at 30°C. Equal volumes of kinase assay mix Promega (Cat# V5601, Madison, WI) were added to the kinase/inhibitor reaction after 30 minutes, following the manufacturer’s protocol. ATP luminescence was measured using a microplate reader (SpectraMax L, Molecular Devices, Sunnyvale, CA). IC50 values were calculated from assays done in triplicate by fitting the data using Prism 8.1.1 (GraphPad).

Structure (SMILES): C[C@]12C=CC(=O)C=C1CC[C@@H]1[C@@H]2[C@@H](O)C[C@@]2(C)[C@H]1CC[C@]2(O)C(=O)CO [Prednisolone]
- IC50: 300 µM
- raw luminescence, HsERK8 (0.00015 mM compound, sheet ADP_ATP_glo081724 (3)): 2318.43 RLU and 2379.5 RLU and 1359.39 RLU
- raw luminescence, HsERK8 (0.00015 mM compound, sheet Kinase_glo 08142024 (2)): 11527 RLU and 11136 RLU and 8980.24 RLU
- raw luminescence, HsERK8 (0.00015 mM compound, sheet Kinase_glo_080924_IFPS (2)): 3541.75 RLU and 3582.18 RLU and 3076.85 RLU
- raw luminescence, HsERK8 (0.00061 mM compound, sheet ADP_ATP_glo081724 (3)): 2825.09 RLU and 2949.5 RLU and 2422.48 RLU
- raw luminescence, HsERK8 (0.00061 mM compound, sheet Kinase_glo 08142024 (2)): 11527 RLU and 11503.8 RLU and 9669.24 RLU
- raw luminescence, HsERK8 (0.00061 mM compound, sheet Kinase_glo_080924_IFPS (2)): 3770.83 RLU and 3829.22 RLU and 3330.64 RLU
- raw luminescence, HsERK8 (0.00244 mM compound, sheet ADP_ATP_glo081724 (3)): 3720.8 RLU and 3505.92 RLU and 3191.52 RLU
- raw luminescence, HsERK8 (0.00244 mM compound, sheet Kinase_glo 08142024 (2)): 11998.3 RLU and 11782.7 RLU and 9967.25 RLU
- raw luminescence, HsERK8 (0.00244 mM compound, sheet Kinase_glo_080924_IFPS (2)): 4143.65 RLU and 4112.2 RLU and 3658.53 RLU
- raw luminescence, HsERK8 (0.00977 mM compound, sheet ADP_ATP_glo081724 (3)): 3641.63 RLU and 3797.7 RLU and 3386.04 RLU
- raw luminescence, HsERK8 (0.00977 mM compound, sheet Kinase_glo 08142024 (2)): 11620 RLU and 11670.7 RLU and 9100.71 RLU
- raw luminescence, HsERK8 (0.00977 mM compound, sheet Kinase_glo_080924_IFPS (2)): 4774.74 RLU and 5053.23 RLU and 4529.94 RLU
- raw luminescence, HsERK8 (0.03906 mM compound, sheet ADP_ATP_glo081724 (3)): 4824.6 RLU and 4808.77 RLU and 4191.27 RLU
- raw luminescence, HsERK8 (0.03906 mM compound, sheet Kinase_glo 08142024 (2)): 13839.2 RLU and 14168.9 RLU and 11317.8 RLU
- raw luminescence, HsERK8 (0.03906 mM compound, sheet Kinase_glo_080924_IFPS (2)): 7209.85 RLU and 6169.43 RLU and 7796.61 RLU
- raw luminescence, HsERK8 (0.15625 mM compound, sheet ADP_ATP_glo081724 (3)): 6885.18 RLU and 7183.74 RLU and 7394.1 RLU
- raw luminescence, HsERK8 (0.15625 mM compound, sheet Kinase_glo 08142024 (2)): 27241.9 RLU and 27273.6 RLU and 25587 RLU
- raw luminescence, HsERK8 (0.15625 mM compound, sheet Kinase_glo_080924_IFPS (2)): 10574.2 RLU and 11234.5 RLU and 10315.9 RLU
- raw luminescence, HsERK8 (0.62500 mM compound, sheet ADP_ATP_glo081724 (3)): 8751.23 RLU and 9074.68 RLU and 6998.27 RLU
- raw luminescence, HsERK8 (0.62500 mM compound, sheet Kinase_glo 08142024 (2)): 32595.4 RLU and 32278.4 RLU and 37446.9 RLU
- raw luminescence, HsERK8 (0.62500 mM compound, sheet Kinase_glo_080924_IFPS (2)): 11504.5 RLU and 12982.8 RLU and 12069.3 RLU
- raw luminescence, HsERK8 (2.50000 mM compound, sheet ADP_ATP_glo081724 (3)): 11083.2 RLU and 11176 RLU and 9323.49 RLU
- raw luminescence, HsERK8 (2.50000 mM compound, sheet Kinase_glo 08142024 (2)): 34732.1 RLU and 34810.3 RLU and 30135.3 RLU
- raw luminescence, HsERK8 (2.50000 mM compound, sheet Kinase_glo_080924_IFPS (2)): 16242.2 RLU and 17136.1 RLU and 14690.3 RLU
- raw luminescence, HsERK8 (10.00000 mM compound, sheet ADP_ATP_glo081724 (3)): 12580.6 RLU and 13211.7 RLU and 13399.4 RLU
- raw luminescence, HsERK8 (10.00000 mM compound, sheet Kinase_glo 08142024 (2)): 37851.6 RLU and 37726.9 RLU and 37092.9 RLU
- raw luminescence, HsERK8 (10.00000 mM compound, sheet Kinase_glo_080924_IFPS (2), signal = ATP left): 19715.5 RLU and 19196.1 RLU and 19703.2 RLU
- Luminescence Raw (Kinase-Glo) (inhibitor 0.00976562 mM, sheet Sil_Pred3, read 3): 88068.9 and 93660.9 and 91592.3
- Luminescence Raw (Kinase-Glo) (inhibitor 0.0195312 mM, sheet Sil_Pred3, read 3): 91367.4 and 97331.9 and 97175
- Luminescence Raw (Kinase-Glo) (inhibitor 0.0390625 mM, sheet Sil_Pred3, read 3): 94347.3 and 94052.1 and 92142.9
- Luminescence Raw (Kinase-Glo) (inhibitor 0.078125 mM, sheet Sil_Pred3, read 3): 98578.2 and 105295 and 104564
- Luminescence Raw (Kinase-Glo) (inhibitor 0.15625 mM, sheet Sil_Pred3, read 3): 97978.5 and 103671 and 102378
- Luminescence Raw (Kinase-Glo) (inhibitor 0.3125 mM, sheet Sil_Pred3, read 3): 103442 and 105117 and 104861
- Luminescence Raw (Kinase-Glo) (inhibitor 0.625 mM, sheet Sil_Pred3, read 3): 118041 and 120665 and 116088
- Luminescence Raw (Kinase-Glo) (inhibitor 0.00976562, sheet Sil_Pred1, read 1): 100407 and 106564 and 102910
- Luminescence Raw (Kinase-Glo) (inhibitor 0.00976562, sheet Sil_Pred2, read 2): 90625.3 and 98037.5 and 95030.3
- Luminescence Raw (Kinase-Glo) (inhibitor 0.0195312, sheet Sil_Pred1, read 1): 105846 and 111118 and 110378
- Luminescence Raw (Kinase-Glo) (inhibitor 0.0195312, sheet Sil_Pred2, read 2): 95809.4 and 101447 and 100168
- Luminescence Raw (Kinase-Glo) (inhibitor 0.0390625, sheet Sil_Pred1, read 1): 108782 and 106859 and 106809
- Luminescence Raw (Kinase-Glo) (inhibitor 0.0390625, sheet Sil_Pred2, read 2): 97258.4 and 97956.1 and 97225.8
- Luminescence Raw (Kinase-Glo) (inhibitor 0.078125, sheet Sil_Pred1, read 1): 114996 and 120390 and 121203
- Luminescence Raw (Kinase-Glo) (inhibitor 0.078125, sheet Sil_Pred2, read 2): 101568 and 107854 and 109541
- Luminescence Raw (Kinase-Glo) (inhibitor 0.15625, sheet Sil_Pred1, read 1): 112780 and 119367 and 115572
- Luminescence Raw (Kinase-Glo) (inhibitor 0.15625, sheet Sil_Pred2, read 2): 101289 and 108375 and 104275
- Luminescence Raw (Kinase-Glo) (inhibitor 0.3125, sheet Sil_Pred1, read 1): 120905 and 121070 and 122162
- Luminescence Raw (Kinase-Glo) (inhibitor 0.3125, sheet Sil_Pred2, read 2): 107913 and 110173 and 110911
- Luminescence Raw (Kinase-Glo) (inhibitor 0.625 (mM per sheet Pred3), sheet Kinase-Glo802124_Sil_Pred1, read 1, triplicate wells): 138550 and 138736 and 130936
- Luminescence Raw (Kinase-Glo) (inhibitor 0.625, sheet Sil_Pred2, read 2): 122997 and 124612 and 121493

— article PMC12445744, “Molecular docking to homology models of human and Trypanosoma brucei ERK8 that identified ortholog-specific inhibitors” (PLOS Neglected Tropical Diseases, 2025)
